Data taken from patent publication US10988477B2 (Merck Patent GmbH, priority 2018, dated 2021).
Like-named read-outs stand apart in the source and are kept apart here.

How the values were obtained:
[1] = target: intracellular GCN2 (phosphorylation of the GCN2 substrate eIF2α) (Homo sapiens, UniProt Q9P2K8); assay: GCN2 cellular inhibition assay (AlphaScreen SureFire P-eIF2α Ser51, borrelidin-treated U2OS cells); type: cell-based
Outline: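 U2OS cells, adhered overnight, received compounds in 4-fold serial dilutions from 40 μM final, then 10 μM borrelidin for 1 h at 37 °C. Lysates were read by AlphaScreen for phospho-eIF2α Ser51; percent inhibition was set against borrelidin-only wells.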

GCN2 kinase = GCN2 kinase (Homo sapiens, UniProt Q9P2K8); assay: GCN2 enzyme inhibition assay (Transcreener ADP2 fluorescence polarization); type: biochemical; details: 280 μM ATP
Outline: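 Kinase activity is followed as ADP formation, measured by fluorescence polarization, using 4 nM enzyme with 280 μM ATP and 200 μM (RS)7 peptide at pH 7.5 and 25 °C for 1 h. Values come from a non-linear tight-binding fit.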

[2] = compounds of Formula II, biomarker assay, phosphorylated eIF2α Ser51 in borrelidin-treated U2OS cells
[3] = compounds of Formula II, 4 nM GCN2 kinase
[4] = compounds of Formula IV, biomarker assay, phosphorylated eIF2α Ser51 in borrelidin-treated U2OS cells
[5] = Enzyme activity for compounds of Formula IV, Ki(app), 25° C.

Chain of intracellular GCN2 (phosphorylation of the GCN2 substrate eIF2α) (Q9P2K8 whole entry): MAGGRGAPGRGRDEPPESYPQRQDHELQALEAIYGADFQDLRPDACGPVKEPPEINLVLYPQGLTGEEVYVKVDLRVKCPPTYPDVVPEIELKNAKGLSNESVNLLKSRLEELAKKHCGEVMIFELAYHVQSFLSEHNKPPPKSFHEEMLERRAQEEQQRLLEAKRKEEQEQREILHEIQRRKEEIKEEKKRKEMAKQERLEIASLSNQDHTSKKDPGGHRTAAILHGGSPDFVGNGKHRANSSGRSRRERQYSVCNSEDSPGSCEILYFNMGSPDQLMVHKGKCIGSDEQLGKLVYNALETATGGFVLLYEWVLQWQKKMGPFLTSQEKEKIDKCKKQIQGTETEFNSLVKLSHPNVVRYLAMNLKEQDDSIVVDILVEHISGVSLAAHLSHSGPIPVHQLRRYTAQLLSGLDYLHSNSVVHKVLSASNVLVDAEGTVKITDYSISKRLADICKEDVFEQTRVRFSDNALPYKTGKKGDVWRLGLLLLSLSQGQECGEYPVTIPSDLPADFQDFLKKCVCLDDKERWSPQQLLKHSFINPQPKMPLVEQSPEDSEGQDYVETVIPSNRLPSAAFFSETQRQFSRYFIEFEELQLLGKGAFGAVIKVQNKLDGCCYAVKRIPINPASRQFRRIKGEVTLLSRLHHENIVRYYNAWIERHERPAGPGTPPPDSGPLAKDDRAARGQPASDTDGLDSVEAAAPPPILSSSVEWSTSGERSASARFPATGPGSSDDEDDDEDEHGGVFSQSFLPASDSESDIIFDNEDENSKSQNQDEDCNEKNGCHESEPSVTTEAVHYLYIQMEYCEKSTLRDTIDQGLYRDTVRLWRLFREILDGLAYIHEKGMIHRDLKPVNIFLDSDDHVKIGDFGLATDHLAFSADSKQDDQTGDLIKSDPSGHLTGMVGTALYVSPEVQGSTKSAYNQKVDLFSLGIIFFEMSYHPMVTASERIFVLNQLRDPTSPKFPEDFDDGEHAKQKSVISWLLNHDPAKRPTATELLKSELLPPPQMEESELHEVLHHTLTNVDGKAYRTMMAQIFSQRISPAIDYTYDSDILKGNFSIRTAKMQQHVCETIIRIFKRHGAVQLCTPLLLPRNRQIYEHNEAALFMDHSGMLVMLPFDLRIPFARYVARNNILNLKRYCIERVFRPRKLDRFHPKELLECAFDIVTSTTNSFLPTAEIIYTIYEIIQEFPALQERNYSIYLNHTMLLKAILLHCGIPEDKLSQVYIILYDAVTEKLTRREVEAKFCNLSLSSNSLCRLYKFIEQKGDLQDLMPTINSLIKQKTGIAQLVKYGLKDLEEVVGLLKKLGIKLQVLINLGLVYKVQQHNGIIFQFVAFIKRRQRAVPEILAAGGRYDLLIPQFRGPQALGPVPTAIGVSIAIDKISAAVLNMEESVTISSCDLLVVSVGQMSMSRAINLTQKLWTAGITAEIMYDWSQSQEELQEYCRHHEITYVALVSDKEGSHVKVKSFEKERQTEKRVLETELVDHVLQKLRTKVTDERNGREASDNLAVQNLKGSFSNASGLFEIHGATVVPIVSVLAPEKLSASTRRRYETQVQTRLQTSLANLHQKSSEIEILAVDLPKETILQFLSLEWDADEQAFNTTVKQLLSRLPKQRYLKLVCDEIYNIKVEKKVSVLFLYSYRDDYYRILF
Chain of GCN2 kinase (Q9P2K8 whole entry): as above

| SMILES | IC50 [1, 2] [nM] | Ki (GCN2 kinase; [3]) [nM] | IC50 [1, 4] [nM] | Ki (GCN2 kinase; [5]) [nM] | further results |
| --- | --- | --- | --- | --- | --- |
| CS(=O)(=O)N1CC2(CCCN(c3ccnc(-c4cnc5ccc(C(F)F)nn45)c3)C2)C1 | < 500 | < 10 |  |  |  |
| NCC1CCCN(c2ccnc(-c3cnc4cnc(C(F)F)cn34)n2)C1 (centres unmarked) [IV-143, (1-(2-(6-(Difluoromethyl)imidazo[1,2-a]pyrazin-3-yl)pyrimidin-4-yl)piperidin-3-yl)methanamine] |  |  | > 5000 | 100 to 1000 |  |
| CC1CCCN(c2ccnc(-c3cnc4cnc(C(F)(F)F)cn34)n2)C1 (centres unmarked) [IV-424, 3-(4-(3-Methylpiperidin-1-yl)pyrimidin-2-yl)-6-(trifluoromethyl)imidazo[1,2-a]pyrazine] |  |  | > 5000 | 100 to 1000 |  |
| CC1CN(c2nccc(-c3cnc4cnc(C(F)(F)F)cn34)n2)CC(c2cn[nH]c2)O1 (single isomer, unassigned) [IV-201, 2-Methyl-6-(1H-pyrazol-4-yl)-4-(4-(6-(trifluoromethyl)imidazo[1,2-a]pyrazin-3-yl)pyrimidin-2-yl)morpholine] |  |  | < 500 | < 10 |  |
| CC1C(CNS(C)(=O)=O)OC(C)(C)CN1c1cc(-c2cnc3ccc(C(F)F)nn23)ncn1 (single isomer, unassigned) [II-489, N-((4-(6-(6-(Difluoromethyl)imidazo[1,2-b]pyridazin-3-yl)pyrimidin-4-yl)-3,6,6-trimethylmorpholin-2-yl)methyl)methanesulfonamide] | > 5000 | > 1000 |  |  |  |
| C=Cc1cn2c(-c3nccc(N4CCN(C(C)=O)CC4)n3)cnc2cn1 [IV-37, 1-(4-(2-(6-Vinylimidazo[1,2-a]pyrazin-3-yl)pyrimidin-4-yl)piperazin-1-yl)ethan-1-one] |  |  | > 5000 | 100 to 1000 |  |
| FC(F)c1cn2c(-c3nccc(N4CCOCC4)n3)cnc2cn1 [IV-104, 4-(2-(6-(Difluoromethyl)imidazo[1,2-a]pyrazin-3-yl)pyrimidin-4-yl)morpholine] |  |  | > 5000 | 100 to 1000 |  |
| CC1(C)CN(c2cc(-c3cnc4ccc(C(F)F)nn34)ncn2)C[C@@H](CNS(C)(=O)=O)O1 [II-403, (S)—N-((4-(6-(6-(Difluoromethyl)imidazo[1,2-b]pyridazin-3-yl)pyrimidin-4-yl)-6,6-dimethylmorpholin-2-yl)methyl)methanesulfonamide] | < 500 | < 10 |  |  |  |
| CS(=O)(=O)N1CCCC(c2cc(-c3cnc4ccc(C(F)F)nn34)ncn2)CC1 (single isomer, unassigned) [II-275, 6-(Difluoromethyl)-3-(6-(1-(methylsulfonyl)azepan-4-yl)pyrimidin-4-yl)imidazo[1,2-b]pyridazine] | 500 to 5000 | 10 to 1000 |  |  |  |
| CC1(O)CC(CNS(C)(=O)=O)CN(c2cc(-c3cnc4ccc(C(F)F)nn34)ncn2)C1 (single isomer, unassigned) [II-6, N-((1-(6-(6-(Difluoromethyl)imidazo[1,2-b]pyridazin-3-yl)pyrimidin-4-yl)-5-hydroxy-5-methylpiperidin-3-yl)methyl)methanesulfonamide] | 500 to 5000 | 10 to 1000 |  |  |  |
| O=C(O)[C@H]1CCCN(c2cc(-c3cnc4ccc(C(F)F)nn34)ncn2)C1 [II-505, (S)-1-(6-(6-(Difluoromethyl)imidazo[1,2-b]pyridazin-3-yl)pyrimidin-4-yl)piperidine-3-carboxylic acid] | > 5000 | 10 to 1000 |  |  |  |
| NS(=O)(=O)NCC1CCCN(c2ccnc(-c3cnc4cnc(C(F)F)cn34)n2)C1 (centres unmarked) [IV-74, 6-(Difluoromethyl)-3-[4-[3-[(sulfamoylamino)methyl]-1-piperidyl]pyrimidin-2-yl]imidazo[1,2-a]pyrazine] |  |  | > 5000 | 100 to 1000 |  |
| OCc1ccc(-c2ccnc(-c3cnc4cnc(C(F)F)cn34)n2)s1 [IV-175, (5-(2-(6-(Difluoromethyl)imidazo[1,2-a]pyrazin-3-yl)pyrimidin-4-yl)thiophen-2-yl)methanol] |  |  | > 5000 | 100 to 1000 |  |
| C[C@H]1[C@@H](CNS(C)(=O)=O)CC(F)(F)CN1c1cc(-c2cnc3ccc(C(F)F)nn23)ncn1 (single isomer, unassigned) [II-361] | < 500 | < 10 |  |  |  |
| O=S(=O)(NCC1CCCN(c2cc(-c3cnc4ccc(C(F)F)nn34)ncn2)C1)C(F)(F)F (centres unmarked) [II-379, N-((1-(6-(6-(Difluoromethyl)imidazo[1,2-b]pyridazin-3-yl)pyrimidin-4-yl)piperidin-3-yl)methyl)-1,1,1-trifluoromethanesulfonamide] | 500 to 5000 | 10 to 1000 |  |  |  |
| CC1CN(c2nccc(-c3cnc4cnc(C(F)(F)F)cn34)n2)CC(c2cn[nH]c2)O1 (single isomer, unassigned) [IV-199, 2-Methyl-6-(1H-pyrazol-4-yl)-4-(4-(6-(trifluoromethyl)imidazo[1,2-a]pyrazin-3-yl)pyrimidin-2-yl)morpholine] |  |  | 500 to 5000 | 10 to 100 |  |

| SMILES | IC50 [1, 2] [nM] | Ki (GCN2 kinase; [3]) [nM] | IC50 [1, 4] [nM] | Ki (GCN2 kinase; [5]) [nM] | further results |
| --- | --- | --- | --- | --- | --- |
| CC1CN(c2ncc(F)c(-c3cnc4cnc(C(F)(F)F)cn34)n2)C(C)C(c2cn[nH]c2)N1 (centres unmarked) [IV-421, 3-(2-(2,5-Dimethyl-3-(1H-pyrazol-4-yl)piperazin-1-yl)-5-fluoropyrimidin-4-yl)-6-(trifluoromethyl)imidazo[1,2-a]pyrazine] |  |  | 500 to 5000 | 10 to 100 |  |
| Cc1noc([C@@H]2CN(c3ccnc(-c4cnc5cnc(C(F)(F)F)cn45)n3)C[C@H](C)O2)n1 [IV-712] |  |  | > 5000 | 100 to 1000 |  |
| NC(=O)C1CN(c2ccnc(-c3cnc4cnc(C(F)F)cn34)n2)CCO1 (centres unmarked) [IV-48, 4-(2-(6-(Difluoromethyl)imidazo[1,2-a]pyrazin-3-yl)pyrimidin-4-yl)morpholine-2-carboxamide] |  |  | > 5000 | 100 to 1000 |  |
| NC(=O)c1cc(C2CCCN(c3cc(-c4cnc5ccc(C(F)F)nn45)ncn3)C2)n[nH]1 (centres unmarked) [II-205, 3-(1-(6-(6-(Difluoromethyl)imidazo[12-b]pyridazin-3-yl)pyrimidin-4-yl)piperidin-3-yl)-1H-pyrazole-5-carboxamide] | 500 to 5000 | 10 to 1000 |  |  |  |
| C[C@@H]1C[C@H](NS(C)(=O)=O)CN(c2cc(-c3cnc4ccc(C(F)F)nn34)ncn2)C1 [II-449, N-((3S,5R)-1-(6-(6-(Difluoromethyl)imidazo[1,2-b]pyridazin-3-yl)pyrimidin-4-yl)-5-methylpiperidin-3-yl)methanesulfonamide] | < 500 | < 10 |  |  |  |
| FC(F)c1ccc2ncc(-c3cc(C4=CCOCC4)ncn3)n2n1 [II-357, 6-(Difluoromethyl)-3-(6-(3,6-dihydro-2H-pyran-4-yl)pyrimidin-4-yl)imidazo[1,2-b]pyridazine] | > 5000 | 10 to 1000 |  |  |  |
| CC1CN(c2ccnc(-c3cnc4cnc(C(F)(F)F)cn34)n2)CC(c2cn[nH]c2)O1 (single isomer, unassigned) [IV-14, 2-Methyl-6-(1H-pyrazol-4-yl)-4-(2-(6-(trifluoromethyl)imidazo[1,2-a]pyrazin-3-yl)pyrimidin-4-yl)morpholine] |  |  | < 500 | < 10 |  |
| FC(F)c1ccc2ncc(-c3cc(N4CCOC(Cn5cnnc5)C4)ncn3)n2n1 (centres unmarked) [II-29, 2-((4H-1,2,4-Triazol-4-yl)methyl)-4-(6-(6-(difluoromethyl)imidazo[1,2-b]pyridazin-3-yl)pyrimidin-4-yl)morpholine] | > 5000 | 10 to 1000 |  |  |  |
| CC(=O)N1CCN(c2cccc(-c3cnc4cnc(C(N)=O)cn34)n2)CC1 [IV-184, 3-(6-(4-Acetylpiperazin-1-yl)pyridin-2-yl)imidazo[1,2-a]pyrazine-6-carboxamide] |  |  | < 500 | 10 to 100 |  |
| CC1CN(c2ccnc(-c3cnc4cnc(Cl)cn34)n2)CC(c2cn[nH]c2)N1 (single isomer, unassigned) [IV-214, 6-Chloro-3-(4-(3-methyl-5-(1H-pyrazol-4-yl)piperazin-1-yl)pyrimidin-2-yl)imidazo[1,2-a]pyrazine] |  |  | < 500 | < 10 |  |
| CCn1cc(-c2ccnc(-c3cnc4cnc(C(F)F)cn34)n2)cn1 [IV-154, 6-(Difluoromethyl)-3-(4-(1-ethyl-1H-pyrazol-4-yl)pyrimidin-2-yl)imidazo[1,2-a]pyrazine] |  |  | > 5000 | 100 to 1000 |  |
| O=C1NCC2CN(c3cc(-c4cnc5ccc(C(F)F)nn45)ccn3)CCN12 (centres unmarked) [II-173, 7-(4-(6-(Difluoromethyl)imidazo[1,2-b]pyridazin-3-yl)pyridin-2-yl)hexahydroimidazo[1,5-a]pyrazin-3(2H)-one] | 500 to 5000 | 10 to 1000 |  |  |  |
| FC(F)(F)c1ccc2ncc(-c3ccnc(N4CCOC(c5cn[nH]c5)C4)c3)n2n1 (single isomer, unassigned) [II-230, 2-(1H-Pyrazol-4-yl)-4-(4-(6-(trifluoromethyl)imidazo[1,2-b]pyridazin-3-yl)pyridin-2-yl)morpholine] | < 500 | < 10 |  |  |  |
| CS(=O)(=O)NCC1CN(c2cc(-c3cnc4cccnn34)ccn2)CCO1 (centres unmarked) [II-732, N-((4-(4-(imidazo[1,2-b]pyridazin-3-yl)pyridin-2-yl)morpholin-2-yl)methyl)methanesulfonamide] | > 5000 | > 1000 |  |  |  |
| FC(F)(F)c1cn2c(-c3nccc(N4CCO[C@@H](c5cn[nH]c5)C4)n3)cnc2s1 (stereo in doubt) [Compound V-4, 2-(1H-pyrazol-4-yl)-4-(2-(2-(trifluoromethyl)imidazo[2,1-b]thiazol-5-yl)pyrimidin-4-yl)morpholine] |  |  |  |  | IC50 ([1]; compounds of Formula V, U2OS cells, 10 μM borrelidin, 1 h, read-out: GCN2 Biomarker (IC50)): 500 to 5000 nM; Ki (GCN2 kinase; compounds of Formula V, 4 nM GCN2 kinase): 10 to 100 nM |
